Test results reported in patent US10501425B2, “Microbiocidal oxadiazole derivatives” (SYNGENTA PARTICIPATIONS AG, priority 2015, dated 2019).

What was measured:
[1] = tested on: Glomerella lacenarium (Colletotrichum lagenarium); test: Glomerella lagenarium liquid culture / cucumber / preventative (anthracnose); type: cell-based; settings: Colletotrichum orbiculare; 20 ppm in the applied formulation; liquid culture (PDB), growth inhibition measured photometrically 3 to 4 days after application; compared to untreated; read-out: disease control
Description: Mycelia fragments or conidia suspensions of a fungus prepared either freshly from liquid cultures of the fungus or from cryogenic storage, are directly mixed into nutrient broth. DMSO solutions of the test compound (max. 10 mg/ml) are diluted with 0.025% Tween20 by a factor of 50 and 10 μl of this solution is pipetted into a microtiter plate (96-well format). The nutrient broth containing the fungal spores/mycelia fragments is then added to give an end concentration of the tested compound. The test plates are incubated in the dark at 24° C. and 96% relative humidity. The inhibition of fungal growth is determined photometrically after 2 to 7 days, depending on the pathosystem, and percent antifungal activity relative to the untreated check is calculated.
Conidia of the fungus from cryogenic storage are directly mixed into nutrient broth (PDB—potato dextrose broth). After placing a (DMSO) solution of test compound into a microtiter plate (96-well format), the nutrient broth containing the fungal spores is added.
The following compounds at 20 ppm in the applied formulation give at least 80% disease control in this test when compared to untreated control under the same conditions, which show extensive disease development.

[2] = tested on: Puccinia recondita f. Sp. Tritici; test: Puccinia recondita f. sp. tritici / wheat / leaf disc curative (brown rust); type: in vivo; settings: foliar, 24 h, 200 ppm in the applied formulation, wheat leaf segments cv. Kanzler, curative (applied 1 day after inoculation), compared to untreated, read-out: disease control
Description: (§1) Leaf disks or leaf segments of various plant species are cut from plants grown in a greenhouse. The cut leaf disks or segments are placed in multiwell plates (24-well format) onto water agar. The leaf disks are sprayed with a test solution before (preventative) or after (curative) inoculation. Compounds to be tested are prepared as DMSO solutions (max. 10 mg/ml) which are diluted to the appropriate concentration with 0.025% Tween20 just before spraying. The inoculated leaf disks or segments are incubated under defined conditions (temperature, relative humidity, light, etc.) according to the respective test system. A single evaluation of disease level is carried out 3 to 14 days after inoculation, depending on the pathosystem. Percent disease control relative to the untreated check leaf disks or segments is then calculated.
Wheat leaf segments cv. Kanzler are placed on agar in multiwell plates (24-well format). The leaf segments are then inoculated with a spore suspension of the fungus. Plates were stored in darkness at 19° C. and 75% relative humidity. The formulated test compound diluted in water was applied 1 day after inoculation. The leaf segments were incubated at 19° C. and 75% relative humidity under a light regime of 12 hours light/12 hours darkness in a climate cabinet and the activity of a compound was assessed as percent disease control compared to untreated when an appropriate level of disease damage appears in untreated check leaf segments (6 to 8 days after application).
The following compounds at 200 ppm in the applied formulation give at least 80% disease control in this test when compared to untreated control leaf disks under the same conditions, which show extensive disease development.

[3] = tested on: Puccinia recondita f. Sp. Tritici; test: Puccinia recondita f. sp. tritici / wheat / leaf disc preventative (brown rust); type: in vivo; settings: foliar, 200 ppm in the applied formulation, wheat leaf segments cv. Kanzler, preventative (inoculated 1 day after application), compared to untreated, read-out: disease control
Description: as §1, with “calculated. Wheat leaf segments cv. Kanzler were placed on agar in multiwell plates (24-well format) and sprayed with the formulated test compound diluted in water. The leaf disks were inoculated with a spore suspension of the fungus 1 day after application. The inoculated leaf segments were incubated at 19° C. and 75% relative humidity (rh) under a light regime of 12 hours light/12 hours darkness in a climate cabinet and the activity of a compound was assessed as percent disease control compared to untreated when an appropriate level of disease damage appears in untreated check leaf segments (7 to 9 days after application). The following compounds at 200 ppm in the applied formulation give at least 80% disease control in this test when compared to untreated control leaf disks under the same conditions, which show extensive disease development.” for “calculated.”

CC(C)C(=O)NCc1ccc(-c2noc(C(F)(F)F)n2)cn1 [Compound 1.66, 2-methyl-N-[[5-[5-(trifluoromethyl)-1,2,4-oxadiazol-3-yl]-2-pyridyl]methyl]propanamide]
≥ 80%: inhibition of growth at 20 ppm [1] | pest or weed control at 200 ppm [2] | pest or weed control at 200 ppm [3]

CCCC(=O)NCc1ccc(-c2noc(C(F)(F)F)n2)cn1 [Compound 1.67, N-[[5-[5-(trifluoromethyl)-1,2,4-oxadiazol-3-yl]-2-pyridyl]methyl]butanamide]
≥ 80%: inhibition of growth at 20 ppm [1] | pest or weed control at 200 ppm [2] | pest or weed control at 200 ppm [3]

COCC(=O)NCc1ccc(-c2noc(C(F)(F)F)n2)cn1 [Compound 1.69, 2-methoxy-N-[[5-[5-(trifluoromethyl)-1,2,4-oxadiazol-3-yl]-2-pyridyl]methyl]acetamide]
≥ 80%: inhibition of growth at 20 ppm [1] | pest or weed control at 200 ppm [2] | pest or weed control at 200 ppm [3]

CCC(C)C(=O)NCc1ccc(-c2noc(C(F)(F)F)n2)cn1 (stereo not drawn) [Compound 1.71, 2-methyl-N-[[5-[5-(trifluoromethyl)-1,2,4-oxadiazol-3-yl]-2-pyridyl]methyl]butanamide]
≥ 80%: inhibition of growth at 20 ppm [1] | pest or weed control at 200 ppm [2] | pest or weed control at 200 ppm [3]

COCCCC(=O)NCc1ccc(-c2noc(C(F)(F)F)n2)cn1 [Compound 1.72, 4-methoxy-N-[[5-[5-(trifluoromethyl)-1,2,4-oxadiazol-3-yl]-2-pyridyl]methyl]butanamide]
≥ 80%: inhibition of growth at 20 ppm [1] | pest or weed control at 200 ppm [2] | pest or weed control at 200 ppm [3]

O=C(CC(F)(F)F)NCc1ccc(-c2noc(C(F)(F)F)n2)cn1 [Compound 1.74, 3,3,3-trifluoro-N-[(5-[5-(trifluoromethyl)-1,2,4-oxadiazol-3-yl]-2-pyridyl]methyl]propanamide]
≥ 80%: inhibition of growth at 20 ppm [1] | pest or weed control at 200 ppm [2] | pest or weed control at 200 ppm [3]

CC(=O)NCc1ccc(-c2noc(C(F)(F)F)n2)cn1 [Compound 1.75, N-[[5-[5-(trifluoromethyl)-1,2,4-oxadiazol-3-yl]-2-pyridyl]methyl]acetamide]
≥ 80%: inhibition of growth at 20 ppm [1] | pest or weed control at 200 ppm [2] | pest or weed control at 200 ppm [3]

COCCC(=O)NCc1ccc(-c2noc(C(F)(F)F)n2)c(F)c1 [Compound 1.79, N-[[3-fluoro-4-[5-(trifluoromethyl)-1,2,4-oxadiazol-3-yl]phenyl]methyl]-3-methoxy-propanamide]
≥ 80%: inhibition of growth at 20 ppm [1] | pest or weed control at 200 ppm [2] | pest or weed control at 200 ppm [3]

CC(C)(C)COC(=O)NCc1ccc(-c2noc(C(F)(F)F)n2)cc1 [Compound 2.18, 2,2-dimethylpropyl N-[[4-[5-(trifluoromethyl)-1,2,4-oxadiazol-3-yl]phenyl]methyl]carbamate]
≥ 80%: inhibition of growth at 20 ppm [1] | pest or weed control at 200 ppm [2] | pest or weed control at 200 ppm [3]

CCCOC(=O)NCc1ccc(-c2noc(C(F)(F)F)n2)cn1 [Compound 2.20, propyl N-[[5-[5-(trifluoromethyl)-1,2,4-oxadiazol-3-yl]-2-pyridyl]methyl]carbamate]
≥ 80%: inhibition of growth at 20 ppm [1] | pest or weed control at 200 ppm [2] | pest or weed control at 200 ppm [3]

CC#CCOC(=O)NCc1ccc(-c2noc(C(F)(F)F)n2)cn1 [Compound 2.21, but-2-ynyl N-[[5-[5-(trifluoromethyl)-1,2,4-oxadiazol-3-yl]-2-pyridyl]methyl]carbamate]
≥ 80%: inhibition of growth at 20 ppm [1] | pest or weed control at 200 ppm [2] | pest or weed control at 200 ppm [3]

CC(C)COC(=O)NCc1ccc(-c2noc(C(F)(F)F)n2)cn1 [Compound 2.22, isobutyl N-[[5-[5-(trifluoromethyl)-1,2,4-oxadiazol-3-yl]-2-pyridyl]methyl]carbamate]
≥ 80%: inhibition of growth at 20 ppm [1] | pest or weed control at 200 ppm [2] | pest or weed control at 200 ppm [3]

COCCOC(=O)NCc1ccc(-c2noc(C(F)(F)F)n2)cn1 [Compound 2.24, 2-methoxyethyl N-[[5-[5-(trifluoromethyl)-1,2,4-oxadiazol-3-yl]-2-pyridyl]methyl]carbamate]
≥ 80%: inhibition of growth at 20 ppm [1] | pest or weed control at 200 ppm [2] | pest or weed control at 200 ppm [3]

C=CCOC(=O)NCc1ccc(-c2noc(C(F)(F)F)n2)cn1 [Compound 2.25, allyl N-[[5-[5-(trifluoromethyl)-1,2,4-oxadiazol-3-yl]-2-pyridyl]methyl]carbamate]
≥ 80%: inhibition of growth at 20 ppm [1] | pest or weed control at 200 ppm [2] | pest or weed control at 200 ppm [3]

CCCCOC(=O)NCc1ccc(-c2noc(C(F)(F)F)n2)cn1 [Compound 2.26, butyl N-[[5-[5-(trifluoromethyl)-1,2,4-oxadiazol-3-yl]-2-pyridyl]methyl]carbamate]
≥ 80%: inhibition of growth at 20 ppm [1] | pest or weed control at 200 ppm [2] | pest or weed control at 200 ppm [3]

O=C(NCc1ccc(-c2noc(C(F)(F)F)n2)cn1)OCCCCCl [Compound 2.28, 4-chlorobutyl N-[[5-[5-(trifluoromethyl)-1,2,4-oxadiazol-3-yl]-2-pyridyl]methyl]carbamate]
≥ 80%: inhibition of growth at 20 ppm [1] | pest or weed control at 200 ppm [2] | pest or weed control at 200 ppm [3]

CC(C)OC(=O)NCc1ccc(-c2noc(C(F)(F)F)n2)cn1 [Compound 2.29, isopropyl N-[[5-[5-(trifluoromethyl)-1,2,4-oxadiazol-3-yl]-2-pyridyl]methyl]carbamate]
≥ 80%: inhibition of growth at 20 ppm [1] | pest or weed control at 200 ppm [2] | pest or weed control at 200 ppm [3]

O=C(NCc1ccc(-c2noc(C(F)(F)F)n2)cn1)OCCF [Compound 2.30, 2-fluoroethyl N-[[5-[5-(trifluoromethyl)-1,2,4-oxadiazol-3-yl]-2-pyridyl]methyl]carbamate]
≥ 80%: inhibition of growth at 20 ppm [1] | pest or weed control at 200 ppm [2] | pest or weed control at 200 ppm [3]

O=C(NCc1ccc(-c2noc(C(F)(F)F)n2)cn1)OCCCCl [Compound 2.31, 3-chloropropyl N-[[5-[5-(trifluoromethyl)-1,2,4-oxadiazol-3-yl]-2-pyridyl]methyl]carbamate]
≥ 80%: inhibition of growth at 20 ppm [1] | pest or weed control at 200 ppm [2] | pest or weed control at 200 ppm [3]

CCOC(=O)NCc1ccc(-c2noc(C(F)(F)F)n2)cn1 [Compound 2.32, ethyl N-[[5-[5-(trifluoromethyl)-1,2,4-oxadiazol-3-yl]-2-pyridyl]methyl]carbamate]
≥ 80%: inhibition of growth at 20 ppm [1] | pest or weed control at 200 ppm [2] | pest or weed control at 200 ppm [3]

O=C(NCc1ccc(-c2noc(C(F)(F)F)n2)cn1)OCCCl [Compound 2.33, 2-chloroethyl N-[[5-[5-(trifluoromethyl)-1,2,4-oxadiazol-3-yl]-2-pyridyl]methyl]carbamate]
≥ 80%: inhibition of growth at 20 ppm [1] | pest or weed control at 200 ppm [2] | pest or weed control at 200 ppm [3]

C#CCOC(=O)NCc1ccc(-c2noc(C(F)(F)F)n2)cn1 [Compound 2.35, prop-2-ynyl N-[[5-[5-(trifluoromethyl)-1,2,4-oxadiazol-3-yl]-2-pyridyl]methyl]carbamate]
≥ 80%: inhibition of growth at 20 ppm [1] | pest or weed control at 200 ppm [2] | pest or weed control at 200 ppm [3]
